For data set [1], the system named is SH-SY5Y. The data set can be described thus: Neuroprotective activity in human SH-SY5Y cells assessed as reduction in amyloid beta (25 to 35)-induced cytotoxicity by measuring cell viability at 10 uM after 24 hrs by MTT assay relative to control. Format: functional. A general note: Tetrazolium assays rely on reduction of a dye to a coloured formazan, in cell work by metabolically active cells.

In data set [2] the test system is BV-2. The data set can be described thus: Antiinflammatory activity against LPS-induced mouse BV-2 cells assessed NO production at 10 uM preincubated for 2 hrs followed by LPS-stimulation and measured after 24 hrs by Greiss reagent based assay relative to control. It is filed as functional. As to conditions: time 26 hrs.
Data set [3] has as its system SH-SY5Y. The data set is described as follows: Neuroprotective activity in human SH-SY5Y cells assessed as reduction in amyloid beta (25 to 35)-induced cytotoxicity by measuring cell viability at 1 uM after 24 hrs by MTT assay relative to control. It is filed as functional.
Data set [4] deals with BV-2. The data set can be described thus: Cytotoxicity against mouse BV-2 cells assessed as reduction cell viability at 10 uM after 24 hrs by MTT assay. It is filed as cell-based. As to conditions: bv-2, 24 h.
Data set [5] relates to SH-SY5Y. The data set can be described thus: Cytotoxicity against human SH-SY5Y cells assessed as reduction cell viability at 1 to 10 uM after 24 hrs by MTT assay. To be noted: dose 1-10 µM. Format: cell-based.
Data set [6] concerns BV-2. The data set can be described thus: Antiinflammatory activity against LPS-induced mouse BV-2 cells assessed NO production at 1 uM preincubated for 2 hrs followed by LPS-stimulation and measured after 24 hrs by Greiss reagent based assay relative to control. Format: functional. To be noted: time 26 hrs.
Data set [7] in a line: Cytotoxicity against mouse BV-2 cells assessed as cell viability at 10 uM after 24 hrs by MTT assay relative to control. Format: cell-based. To be noted: read-out: Activity.

These results are taken from ChEMBL document CHEMBL4673332, “Neuroprotective and Anti-inflammatory Ditetrahydrofuran-Containing Diarylheptanoids from Tacca chantrieri” (J Nat Prod, 2020).

For `O=C(O[C@@H]1Cc2c(O)cc(O)cc2O[C@@H]1c1cc(O)c(O)c(O)c1)c1cc(O)c(O)c(O)c1` [EPIGALOCATECHIN GALLATE], the Activity in the data set on SH-SY5Y [1] is listed as 80.8%.
Regarding `COc1cc(/C=C/C=C/C(=O)CCc2ccc(O)cc2)cc(OC)c1O`, the Activity in the data set with BV-2 [2] is given as 77.4%; in the data set on SH-SY5Y [1] it was 81.3%; in the data set with SH-SY5Y [3], 66.1%; with BV-2 [4] it was “Non-Toxic”; in the data set with SH-SY5Y [5], “Non-Toxic”; in the data set on BV-2 [6], 96.8%.
As for `COc1cc([C@@H]2O[C@@H](CC(=O)CCc3ccc(O)cc3)[C@@H]3[C@H]2[C@H](CC(=O)CCc2ccc(O)cc2)O[C@H]3c2ccc(O)c(OC)c2)ccc1O`, the Activity with BV-2 [2] is 85%; in the data set with SH-SY5Y [1] it was 76.3%; with SH-SY5Y [3], 69%; with SH-SY5Y [5], “Non-Toxic”; in the data set on BV-2 [6], 101.4%. Also, the viability at 24 h, 10 µM in data set [7] was less than 70%.
As to `COc1cc(CC[C@@H](O)C[C@H](O)CCc2ccc(O)cc2)ccc1O`, the Activity is listed as 85.7% with BV-2 [2], “Non-Toxic” in the data set on BV-2 [4] and 99.4% in the data set with BV-2 [6].
For the molecule `COc1cc([C@@H]2O[C@@H](CC(=O)CCc3ccc(O)cc3)[C@@H]3[C@H]2[C@H](CC(=O)CCc2ccc(O)cc2)O[C@H]3c2ccc(O)cc2)ccc1O`, the Activity is 86.8% with BV-2 [2]; 91.9% in the data set on SH-SY5Y [1]; 69.6% in the data set on SH-SY5Y [3]; “Non-Toxic” in the data set on BV-2 [4]; “Non-Toxic” in the data set with SH-SY5Y [5]; 99.6% in the data set on BV-2 [6].
In turn, `Oc1ccc(/C=C/c2cc(O)cc(O)c2)cc1` [RESVERATROL] gave an Activity with BV-2 [6] of 67.5%.
Regarding `COc1cc(CC[C@@H](O)C[C@H](O)CCc2ccc(O)c(OC)c2)ccc1O`, the Activity is 84.3% in the data set on BV-2 [2], “Non-Toxic” with BV-2 [4] and 101.2% in the data set on BV-2 [6].
Taken in the same sequence, the figures for `Oc1ccc2cc1Oc1ccc(cc1)CC[C@H](O)C[C@@H](O)CC2` (relative stereo) were 84.6%, “Non-Toxic” and 98.8%.
Taken in the same sequence, the figures for `Oc1ccc(CC[C@@H](O)C[C@H](O)CCc2ccc(O)cc2)cc1` [(+)-HANNOKINOL] were 94.8%, “Non-Toxic” and 101.9%.
Take `O=C(CCc1ccc(O)cc1)C[C@@H]1O[C@@H](c2ccc(O)cc2)[C@H]2[C@@H]1[C@H](c1ccc(O)cc1)O[C@H]2CC(=O)CCc1ccc(O)cc1`: the Activity in the data set on BV-2 [2] turned out to be 87.8%; in the data set with SH-SY5Y [1], 70.9%; in the data set with SH-SY5Y [3], 70.7%; with BV-2 [6] it was 100.9%. In data set [7], the viability at 24 h, 10 µM is less than 70%.
